Reference: PubChem BioAssay AID2060626 (Molecular Pharmacology Branch, DTP, NCI, 2025)
“And” between values parts separate entries of the source, which are not always exact repeats. Equal entries are not always repeated.

System: 168753-222-R-J1-PDC complex spheroid viability
Assay: Anticancer human tumor 168753-222-R-J1-PDC patient-derived bladder carcinoma cell line growth inhibition [CLK]
Conditions: for viability, T/C: stronger effect = lower value
Description: A high-throughput screen of multi-cell type tumor spheroids was designed to identify active combinations of […] and targeted small molecules. Complex spheroids include a stromal component modeled by human endothelial cells (HUVEC) and fibroblasts modeled by human mesenchymal stem cells (MSCs). The concentration ranges selected for each drug and investigational agent were based upon clinically achievable concentrations if the clinical Cmax of the agent was known.
Compounds. The drugs and investigational agents: cirtuvivint (SM08502; NSC835563), CC-671 (NSC850746), vemurafenib (NSC761431), tapotoclax (NSC804041), sotorasib (NSC818433), adagrasib (NSC831453), MRTX-1133 (NSC836407), BAY2416964 (NSC825713), copanlisib (NSC816437), inavolisib (NSC800729), abemaciclib (NSC768073), osimertinib (NSC779217), entinostat (NSC756642), eltanexor (KPT-8602, NSC794443), venetoclax (NSC766270), ceralasertib (NSC777638), bortezomib (NSC756655), olaparib (NSC753686), talazoparib (NSC767125), alisertib (NSC759677), peposertib (NSC802822), gemcitabine (NSC613327), 5-fluorouracil (NSC19893), SN-38 (NSC673596), oxaliplatin (NSC266046), paclitaxel (NSC125973), and doxorubicin (NSC123127), were obtained from the National Cancer Institute (NCI) Developmental Therapeutics Program Chemical Repository. The FDA-approved anticancer drug set is available from the Developmental Therapeutics Program at https://dtp.cancer.gov/organization/dscb/obtaining/available plates.htm. […] The stock solutions were prepared in dimethyl sulfoxide (DMSO, Sigma-Aldrich, St. Louis, MO, cat. D2650), except for the platinum complexes which were prepared in saline (Quality Biological, Gaithersburg, MD, cat. 114-055-101), at 800-fold the tested concentration and stored at -70 degrees C prior to their use. All drugs and investigational agents were tested over a range starting from a high concentration at or near the clinical Cmax and decreasing in half-log increments. If the clinical Cmax for an agent had not been determined, the highest concentration tested was 10 microM.
Cell Culture. All cells were maintained in an incubator at 37 degrees C and 5% CO2 with 95% humidity. The PDC lines were cultured according to standard operating procedures established by the NCI PDMR. Briefly, all PDCs were thawed and cultured in Matrigel-coated flasks prepared with a working solution of 1X Ham's F-12 nutrient mix, without supplementation (Invitrogen, Waltham, MA, cat. 11765054), 100 U/mL penicillin-streptomycin (Invitrogen, cat. 15140122), and 2.5% Matrigel (Corning Inc., Corning, NY, cat. 354248) for the first three passages. The 947758-054-R-J2-PDC line was cultured in 6B/Colon 1A media, which includes advanced DMEM/F-12 (Thermo Fisher Scientific, cat. 12634028), 10 mM HEPES (Thermo Fisher Scientific, cat. 15630080), 1X GlutaMAX supplement (Thermo Fisher Scientific, cat. 35050061), 0.1 mg/mL primocin (InvivoGen, cat. ant-pm-2), 10% defined fetal bovine serum, heat inactivated (HyClone Laboratories Inc., cat. SH30070.03HI), 1.25 mM N-Acetyl-L-cysteine (Sigma-Aldrich, cat. A9165), 10 mM nicotinamide (Sigma-Aldrich, cat. N0636), 1X B-27 supplement (Thermo Fisher Scientific, cat. 17504044), 1X N-2 supplement (Thermo Fisher Scientific, cat. 17502048), and 10 microM Y-27632 dihydrochloride (Tocris Bioscience, cat. 1254). The 876862-298-R-J1-PDC was cultured in 6E media, which includes all 6B/Colon 1A media components plus 50% L-WRN conditioned media (ATCC, cat. CRL-3276), 50 ng/mL recombinant human EGF recombinant protein (hEGF; Thermo Fisher Scientific, cat. PHG0311), 10 ng/mL recombinant human fibroblast growth factor 10 (hGFG-10; PeproTech, cat. 100-26), 1 ng/mL recombinant human fibroblast growth factor 2 (hFGF-2; PeproTech, cat. 100-18B), and 1 µM prostaglandin E2 (PGE2; Tocris, cat. 2296). The 227483-062-R1-J1-PDC line was cultured in Panc media, containing all 6E components except hFGF-2, with the addition of 500 nM SB-431542 (Selleckchem, cat. S1067) and 10 nM gastrin (Tocris, cat. 3006). […]
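Further: viability measured after seven days of drug exposure.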
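Wherever viability, T/C is given: luminescence signal used as surrogate for viable cell amount; 100% = DMSO vehicle control wells.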

## CN1CCN(c2cc(C(=O)Nc3cc4cc(-c5cnn(C)c5)ccc4cn3)ccn2)CC1
Compound 0.316 µM
  viability, T/C: 10.2% [middle of 12 runs]
Compound 1 µM
  viability, T/C: 1.32% [middle of 11 runs]
Compound 3.16 µM
  viability, T/C: 0.5% [middle of 11 runs]
Compound 10 µM
  viability, T/C: 0.32% [middle of 10 runs]
Compound alone, run of 07/31/2023
  IC50: 102 nM [middle of 12 runs]

## COc1ccc([C@@H](O)c2cc(-c3ncnc4cc(N5CCOCC5)ccc34)c(F)cc2Cl)nn1
Compound 0.0316 µM
  viability, T/C: 90% and 106%
Compound 0.1 µM
  viability, T/C: 95.4% and 97.4%
Compound 0.316 µM
  viability, T/C: 40.8% and 95.7%
Compound 1 µM
  viability, T/C: 26.3% and 80.3%
Compound 3.16 µM
  viability, T/C: 13.1% and 37.1%
Compound 10 µM
  viability, T/C: 7.58% and 16.6%
Curve of compound
  IC50: 258 nM and 2250 nM

## COc1cccc2c1C(=O)c1c(O)c3c(c(O)c1C2=O)CC(O)(C(=O)CO)CC3OC1CC(N)C(O)C(C)O1 (stereo unspecified)
Compound 0.0316 µM
  viability, T/C: 49.4% and 85.7%
Compound 0.1 µM
  viability, T/C: 38.7% and 47.7%
Compound 0.316 µM
  viability, T/C: 28.3% and 46.2%
Compound 1 µM
  viability, T/C: 7.17% and 21%
Compound 3.16 µM
  viability, T/C: 7.34% and 13.8%
Compound 10 µM
  viability, T/C: 0.22% and 0.15%
Curve of compound
  IC50: < 31.6 nM and 159 nM

## C=CC(=O)N1CCN(c2nc(=O)n(-c3c(C)ccnc3C(C)C)c3nc(-c4c(O)cccc4F)c(F)cc23)C(C)C1 (stereo unspecified) + CN1CCN(c2cc(C(=O)Nc3cc4cc(-c5cnn(C)c5)ccc4cn3)ccn2)CC1
Curve of first compound, second compound 0.0316 µM
  IC50: > 10000 nM
Curve of first compound, second compound 0.1 µM
  IC50: 3770 nM
Curve of first compound, second compound 0.316 µM
  IC50: < 31.6 nM
Curve of first compound, second compound 1 µM
  IC50: < 31.6 nM
Curve of first compound, second compound 3.16 µM
  IC50: < 31.6 nM
Curve of first compound, second compound 10 µM
  IC50: < 31.6 nM
Second compound 0.0316 µM, first compound 0.0316 µM
  viability, T/C: 96.6%
Second compound 0.0316 µM, first compound 0.1 µM
  viability, T/C: 107%
Second compound 0.0316 µM, first compound 0.316 µM
  viability, T/C: 111%
Second compound 0.0316 µM, first compound 1 µM
  viability, T/C: 133%
Second compound 0.0316 µM, first compound 3.16 µM
  viability, T/C: 82.8%
Second compound 0.0316 µM, first compound 10 µM
  viability, T/C: 100%
Second compound 0.1 µM, first compound 0.0316 µM
  viability, T/C: 79.4%
Second compound 0.1 µM, first compound 0.1 µM
  viability, T/C: 84.5%
Second compound 0.1 µM, first compound 0.316 µM
  viability, T/C: 55.5%
Second compound 0.1 µM, first compound 1 µM
  viability, T/C: 75.3%
Second compound 0.1 µM, first compound 3.16 µM
  viability, T/C: 52.5%
Second compound 0.1 µM, first compound 10 µM
  viability, T/C: 32.1%
Second compound 0.316 µM, first compound 0.0316 µM
  viability, T/C: 16.2%
Second compound 0.316 µM, first compound 0.1 µM
  viability, T/C: 13.4%
Second compound 0.316 µM, first compound 0.316 µM
  viability, T/C: 14.2%
Second compound 0.316 µM, first compound 1 µM
  viability, T/C: 13.8%
Second compound 0.316 µM, first compound 3.16 µM
  viability, T/C: 12.8%
Second compound 0.316 µM, first compound 10 µM
  viability, T/C: 15.2%
Second compound 1 µM, first compound 0.0316 µM
  viability, T/C: 0.29%
Second compound 1 µM, first compound 0.1 µM
  viability, T/C: 0.48%
Second compound 1 µM, first compound 0.316 µM
  viability, T/C: 1.79%
Second compound 1 µM, first compound 1 µM
  viability, T/C: 0.27%
Second compound 1 µM, first compound 3.16 µM
  viability, T/C: 0.3%
Second compound 1 µM, first compound 10 µM
  viability, T/C: 0.2%
Second compound 3.16 µM, first compound 0.0316 µM
  viability, T/C: 1.43%
Second compound 3.16 µM, first compound 0.1 µM
  viability, T/C: 0.16%
Second compound 3.16 µM, first compound 0.316 µM
  viability, T/C: 0.55%
Second compound 3.16 µM, first compound 1 µM
  viability, T/C: 0.11%
Second compound 3.16 µM, first compound 3.16 µM
  viability, T/C: 1.89%
Second compound 3.16 µM, first compound 10 µM
  viability, T/C: 0.22%
Second compound 10 µM, first compound 0.0316 µM
  viability, T/C: 0.21%
Second compound 10 µM, first compound 0.1 µM
  viability, T/C: 0.2%
Second compound 10 µM, first compound 0.316 µM
  viability, T/C: 0.6%
Second compound 10 µM, first compound 1 µM
  viability, T/C: 0.18%
Second compound 10 µM, first compound 3.16 µM
  viability, T/C: 0.4%
Second compound 10 µM, first compound 10 µM
  viability, T/C: 0.57%
